# Measurements as given in ChEMBL document CHEMBL4177698, “Discovery and in vivo effects of novel human natriuretic peptide receptor A (NPR-A) agonists with improved activity for rat NPR-A” (Bioorg Med Chem, 2017).
# The source made the active and inactive calls. No cut-off for these calls is given here.
# Tests used:
# [1] = molecular target: T1, Atrial natriuretic peptide receptor 1 (Homo sapiens, UniProt P16066); assay: Agonist activity at human NPR-A expressed in CHO cells assessed as increase in cGMP accumulation after 30 mins by radioimmunoassay; type: cell-based
# T1 sequence (P16066 whole entry): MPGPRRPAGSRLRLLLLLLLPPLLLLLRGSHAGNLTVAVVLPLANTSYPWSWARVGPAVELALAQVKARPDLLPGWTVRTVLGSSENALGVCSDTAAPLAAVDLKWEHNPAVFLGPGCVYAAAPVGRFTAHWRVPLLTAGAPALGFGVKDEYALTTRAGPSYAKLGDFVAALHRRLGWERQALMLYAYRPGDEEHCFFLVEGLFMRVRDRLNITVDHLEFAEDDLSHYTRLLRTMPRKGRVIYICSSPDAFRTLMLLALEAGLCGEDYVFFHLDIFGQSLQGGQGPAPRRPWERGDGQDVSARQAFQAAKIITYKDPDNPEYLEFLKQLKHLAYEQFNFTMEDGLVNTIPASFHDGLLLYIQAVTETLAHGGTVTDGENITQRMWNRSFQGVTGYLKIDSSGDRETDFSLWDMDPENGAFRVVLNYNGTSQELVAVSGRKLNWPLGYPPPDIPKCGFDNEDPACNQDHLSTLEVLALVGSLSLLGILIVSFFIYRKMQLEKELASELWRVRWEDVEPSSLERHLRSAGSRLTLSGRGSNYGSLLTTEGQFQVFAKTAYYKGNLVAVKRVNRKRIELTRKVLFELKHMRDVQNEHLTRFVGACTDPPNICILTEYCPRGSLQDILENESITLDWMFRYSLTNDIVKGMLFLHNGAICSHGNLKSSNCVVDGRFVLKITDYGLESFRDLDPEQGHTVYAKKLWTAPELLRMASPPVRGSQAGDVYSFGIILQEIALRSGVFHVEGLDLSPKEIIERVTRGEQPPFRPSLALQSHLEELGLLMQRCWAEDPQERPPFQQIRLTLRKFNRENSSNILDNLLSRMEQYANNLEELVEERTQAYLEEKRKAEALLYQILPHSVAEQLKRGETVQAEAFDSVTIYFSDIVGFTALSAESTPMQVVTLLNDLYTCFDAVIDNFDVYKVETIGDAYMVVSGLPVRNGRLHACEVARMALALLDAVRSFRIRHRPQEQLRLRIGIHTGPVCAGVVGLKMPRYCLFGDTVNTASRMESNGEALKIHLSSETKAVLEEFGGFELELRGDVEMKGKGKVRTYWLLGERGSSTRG
# [2] = system: Rattus norvegicus; assay: Diuretic activity in Crl:CD(SD) rat assessed as increase in urine volume at 1 mg/kg/min, iv administered as infusion over 30 mins measured after 20 mins post dose; type: functional, organism-based
# [3] = molecular target: T2, Atrial natriuretic peptide receptor 1 (Rattus norvegicus, UniProt P18910); assay: Agonist activity at rat NPR-A expressed in CHO cells assessed as increase in cGMP accumulation after 15 mins by fluorescent assay; type: cell-based
# T2 sequence (P18910 whole entry): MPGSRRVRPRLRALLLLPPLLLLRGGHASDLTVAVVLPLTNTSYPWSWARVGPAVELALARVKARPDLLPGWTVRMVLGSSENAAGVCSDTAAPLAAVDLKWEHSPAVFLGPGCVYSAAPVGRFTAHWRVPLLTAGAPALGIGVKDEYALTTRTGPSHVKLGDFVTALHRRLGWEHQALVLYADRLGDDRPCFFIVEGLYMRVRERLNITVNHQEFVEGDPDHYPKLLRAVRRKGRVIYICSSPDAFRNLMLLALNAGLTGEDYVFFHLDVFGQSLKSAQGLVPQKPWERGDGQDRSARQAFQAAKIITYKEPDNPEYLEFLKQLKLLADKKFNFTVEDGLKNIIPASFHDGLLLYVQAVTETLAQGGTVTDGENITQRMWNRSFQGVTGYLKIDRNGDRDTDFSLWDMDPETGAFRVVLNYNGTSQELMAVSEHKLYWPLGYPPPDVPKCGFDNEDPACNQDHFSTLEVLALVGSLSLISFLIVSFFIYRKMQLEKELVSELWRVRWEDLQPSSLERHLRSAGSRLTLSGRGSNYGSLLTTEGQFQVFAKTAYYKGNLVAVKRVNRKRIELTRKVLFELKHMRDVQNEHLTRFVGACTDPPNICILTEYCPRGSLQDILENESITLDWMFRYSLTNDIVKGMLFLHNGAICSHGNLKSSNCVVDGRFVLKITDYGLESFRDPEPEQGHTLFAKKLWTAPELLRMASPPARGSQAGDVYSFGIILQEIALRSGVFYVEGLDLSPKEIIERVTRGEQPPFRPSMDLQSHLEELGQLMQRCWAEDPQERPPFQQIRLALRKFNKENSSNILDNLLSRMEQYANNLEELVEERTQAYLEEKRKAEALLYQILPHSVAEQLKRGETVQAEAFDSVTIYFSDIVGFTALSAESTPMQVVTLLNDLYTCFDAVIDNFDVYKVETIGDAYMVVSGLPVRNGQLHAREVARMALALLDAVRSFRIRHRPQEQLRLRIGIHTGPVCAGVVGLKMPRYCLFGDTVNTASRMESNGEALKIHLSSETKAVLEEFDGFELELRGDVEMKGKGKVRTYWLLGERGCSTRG
# [4] = system: Rattus norvegicus; assay: In vivo agonist activity at NPR-A in Crl:CD(SD) rat assessed as increase in cGMP accumulation in lungs at 1 mg/kg/min; type: functional, organism-based
# [5] = system: Rattus norvegicus; assay: In vivo agonist activity at NPR-A in Crl:CD(SD) rat assessed as increase in cGMP accumulation in heart at 1 mg/kg/min; type: functional, organism-based
# [6] = system: Rattus norvegicus; assay: In vivo agonist activity at NPR-A in Crl:CD(SD) rat assessed as increase in cGMP accumulation in plasma at 1 mg/kg/min, iv administered via infusion for 15 mins measured after 30 mins by radioimmunoassay; type: functional, organism-based
# [7] = system: Rattus norvegicus; assay: Diuretic activity in Crl:CD(SD) rat assessed as increase in urine volume at 1 mg/kg/min, iv administered as infusion over 30 mins measured after 40 mins post dose; type: functional, organism-based
smiles,measurement,setting,value
CC(C)[C@H](CO)NC(=O)N[C@H]1CC[C@@H](Nc2nc(N[C@H](C)CO)nc3ncc(-c4cccc(F)c4)cc23)CC1,EC50,[1],110 nM
same,Activity,[2],Active
same,EC50,[3],62 nM
same,Activity,[4],Active
same,Activity,[5],Active
same,Activity,[6],Active
same,Activity,[7],Active
COC[C@@H](C)Nc1nc(N[C@H]2CC[C@@H](NC(=O)NC(C)C)CC2)c2nc(-c3cccc(F)c3)ccc2n1,EC50,[1],4000 nM
same,EC50,[3],1600 nM
C[C@H](CO)Nc1nc(N[C@H]2CC[C@H](NC(=O)[C@H]3C[C@H](O)C3)CC2)c2cc(-c3cccc(F)c3)ccc2n1,EC50,[1],470 nM
same,EC50,[3],700 nM
CC(C)NC(=O)N[C@H]1CC[C@@H](Nc2nc(N(C)CCO)nc3ccc(-c4cccc(F)c4)cc23)CC1,EC50,[1],720 nM
same,EC50,[3],2100 nM
CC(C)[C@H](CO)NC(=O)N[C@H]1CC[C@@H](Nc2nc(N[C@H](C)CO)nc3cnc(-c4cccc(F)c4)cc23)CC1,EC50,[1],620 nM
same,EC50,[3],130 nM
COC[C@@H](C)Nc1nc(N[C@H]2CC[C@@H](NC(=O)NC3CC3)CC2)c2cc(-c3cccc(F)c3)ccc2n1,EC50,[1],340 nM
same,EC50,[3],270 nM
C[C@H](CO)Nc1nc(N[C@H]2CC[C@H](NC(=O)[C@H]3C[C@H](O)C3)CC2)c2cc(-c3ccccc3)ccc2n1,EC50,[1],900 nM
same,EC50,[3],1800 nM
C[C@H](CO)Nc1nc(N[C@H]2CC[C@@H](NC(=O)NC3(CO)CCCC3)CC2)c2cc(-c3cccc(F)c3)ccc2n1,EC50,[1],78 nM
same,EC50,[3],120 nM
C[C@H](CO)Nc1nc(N[C@H]2CC[C@@H](NC(=O)NC3CC3)CC2)c2cc(-c3cccc(F)c3)ccc2n1,EC50,[1],330 nM
same,EC50,[3],180 nM
CC(C)NC(=O)N[C@H]1CC[C@@H](Nc2nc(NC(C)C)nc3ccc(-c4cccc(F)c4)cc23)CC1,EC50,[1],1500 nM
same,EC50,[3],420 nM
CC(C)Nc1nc(N[C@H]2CC[C@@H](NC(=O)N(C)C(C)C)CC2)c2cc(-c3cccc(F)c3)ccc2n1,EC50,[1],4000 nM
same,EC50,[3],3000 nM
C[C@H](CO)Nc1nc(N[C@H]2CC[C@@H](NC(=O)NC3CCCN(C)C3)CC2)c2cc(-c3cccc(F)c3)ccc2n1 (stereo partly specified),EC50,[1],780 nM
same,EC50,[3],3200 nM
COC[C@H](C)Nc1nc(N[C@H]2CC[C@@H](NC(=O)NC3CC3)CC2)c2cc(-c3cccc(F)c3)ccc2n1,EC50,[1],850 nM
same,EC50,[3],1800 nM
CC(C)N[C@H]1C[C@H](C(=O)N[C@H]2CC[C@H](Nc3nc(N[C@H](C)CO)nc4ccc(-c5ccccc5)cc34)CC2)C1,EC50,[1],320 nM
same,EC50,[3],2000 nM
CC(C)[C@H](CO)NC(=O)N[C@H]1CC[C@@H](Nc2nc(N[C@H](C)CO)nc3ccc(-c4cccc(F)c4)cc23)CC1,EC50,[1],71 nM
same,EC50,[3],65 nM
same,Activity,[6],Active
C[C@H](CO)Nc1nc(N[C@H]2CC[C@@H](NC(=O)NC(C)(C)CO)CC2)c2cc(-c3cccc(F)c3)ccc2n1,EC50,[1],220 nM
same,EC50,[3],66 nM
same,Activity,[6],Active
COC[C@@H](C)Nc1nc(N[C@H]2CC[C@@H](NC(=O)NC(C)C)CC2)c2cc(-c3cccc(F)c3)ccc2n1,EC50,[1],200 nM
same,EC50,[3],160 nM
COCCNc1nc(N[C@H]2CC[C@@H](NC(=O)NC(C)C)CC2)c2cc(-c3cccc(F)c3)ccc2n1,EC50,[1],380 nM
same,EC50,[3],610 nM
CC(C)[C@@H](CO)NC(=O)N[C@H]1CC[C@@H](Nc2nc(N[C@H](C)CO)nc3ccc(-c4cccc(F)c4)cc23)CC1,EC50,[1],41 nM
same,EC50,[3],330 nM
C[C@H](CO)Nc1nc(N[C@H]2CC[C@H](NC(=O)N3CC(O)C3)CC2)c2cc(-c3cccc(F)c3)ccc2n1,EC50,[1],420 nM
same,EC50,[3],900 nM
CC(C)NC(=O)N[C@H]1CC[C@H](Nc2nc(N[C@H](C)CO)nc3ccc(-c4cccc(F)c4)cc23)CC1,EC50,[1],460 nM
same,EC50,[3],530 nM
CC(C)Nc1nc(N[C@H]2CC[C@@H](NC(=O)N[C@@H](CO)C(C)C)CC2)c2cc(-c3cccc(F)c3)cnc2n1,EC50,[1],98 nM
same,EC50,[3],43 nM
same,Activity,[6],Active
CC(C)Nc1nc(N[C@H]2CC[C@@H](NC(=O)N[C@@H](CO)C(C)C)CC2)c2cc(-c3cccc(F)c3)ccc2n1,EC50,[1],1000 nM
same,EC50,[3],290 nM
CC(C)NC(=O)N[C@H]1CC[C@@H](Nc2nc(N[C@H](C)CO)nc3ccc(-c4cccc(F)c4)cc23)CC1,EC50,[1],320 nM
same,EC50,[3],74 nM
